Experimental findings from US20090081717A1, “Compositions and Methods For Signal Generation” (priority 2007, published 2009) are described below.

One assay concerns alkaline phosphatase. The following applies: 1×10^−12 moles alkaline phosphatase in 0.1 M Tris, pH 9.0, 45 sec at room temperature, measured 1 sec. On the procedure:
A substrate solution containing 0.8 mg/ml 3-indoxyl phosphate bis(2-amino-2-methyl-1,3-propanediol) salt (Biosynth International) and 0.4 mg/ml lucigenin (Sigma Aldrich) was prepared in 0.1 M Tris buffer, pH 9.0. 10 ul of the sample (blank (0.1 M Tris, pH 9.0 or 1×10^−12 moles alkaline phosphatase in 0.1 M Tris, pH 9.0) was added to plastic tubes. 50 ul of the substrate containing 0% DMSO, 0.1% DMSO (v/v), 1% DMSO) (v/v), 10% DMSO (v/v) and 20% DMSO (v/v) was added to respective tubes and water was added to the substrate in appropriate percentage as a control. The reaction was incubated for 45 sec at room temperature and chemiluminescence was measured for 1 sec using an Optocomp I (MGM) luminometer.

Assay [1] can be described thus: Chemiluminescence of indoxyl phosphate substrate solution with blank sample (no enzyme). The class given is biochemical. The following applies: blank sample 0.1 M Tris, pH 9.0, no enzyme.

Read-outs that look alike come from different tables or passages of the source.

On to `CC(N)(CO)CO.CC(N)(CO)CO.O=P(O)(O)Oc1c[nH]c2ccccc12` [3-indoxyl phosphate bis(2-amino-2-methyl-1,3-propanediol) salt], for which the Alkaline phosphatase chemiluminescence is on record as 895,068 Relative light unit in the assay with alkaline phosphatase (substrate with 0 vol % DMSO); 899,207 Relative light unit with alkaline phosphatase (substrate with 0.1 vol % DMSO); 1,101,369 Relative light unit with alkaline phosphatase (substrate with 1 vol % DMSO); 1,909,745 Relative light unit with alkaline phosphatase (substrate with 10 vol % DMSO); 2,375,681 Relative light unit in the assay with alkaline phosphatase (substrate with 20 vol % DMSO). Moreover, the Blank chemiluminescence came out at 472 Relative light units in assay [1] (substrate with 0 vol % DMSO); 511 Relative light units in assay [1] (substrate with 0.1 vol % DMSO); 569 Relative light units in assay [1] (substrate with 1 vol % DMSO); 1214 Relative light units in assay [1] (substrate with 10 vol % DMSO); 1917 Relative light units in assay [1] (substrate with 20 vol % DMSO).
